From ChEMBL document CHEMBL1201862, “PubChem BioAssay data set” (2004)
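Where inhibition never reached the appropriate level, the endpoint shown equals the highest concentration tested. Otherwise, values were interpolated linearly from a five-concentration, 48-hour dose response in 96-well plates. GI50: concentration for 50% inhibition of growth.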 Calls of active or inactive are those of the source. Cut-off read from the data, not from the text of the source: active = GI50 up to about 1.1 µM and inactive = higher.

Columns and labels:
Assay in all cases: inhibition of tumour cell growth, NCI panel, 48 h
[1] = test system: UO-31
[2] = test system: OVCAR-5
[3] = test system: HCC 2998
[4] = test system: UACC-257
[5] = test system: SR
[6] = test system: HOP-62
[7] = test system: 786-0
[8] = test system: A549
[9] = test system: M14
[10] = test system: COLO 205
[11] = test system: U-251
[12] = test system: RXF 631
[13] = test system: OVCAR-8
[14] = test system: OVCAR-3
[15] = test system: RPMI-8226
[16] = test system: EKVX
[17] = test system: M19-MEL
[18] = test system: LXFL 529
[19] = test system: CAKI-1
[20] = test system: IGROV-1
[21] = test system: SNB-19
[22] = test system: TK-10
[23] = test system: SF-295
[24] = test system: HOP-18
[25] = test system: DMS-273
[26] = test system: SNB-78
[27] = test system: KM-20L2
[28] = test system: CCRF-CEM
[29] = test system: ACHN
[30] = test system: HCT-116
[31] = test system: HCT-15
[32] = test system: UACC-62
[33] = test system: NCI-H226
[34] = test system: A498
[35] = test system: SF-268
[36] = test system: SK-MEL-28
[37] = test system: SK-OV-3
[38] = test system: LOX IMVI
[39] = test system: KM12
[40] = test system: SF-539
[41] = test system: HL-60
[42] = test system: Malme-3M
[43] = test system: DLD-1
[44] = test system: NCI-H23
[45] = test system: SW-620
[46] = test system: NCI-H460
[47] = test system: RXF 393
[48] = test system: SNB-75
[49] = test system: SN12C
[50] = test system: DMS-114
[51] = test system: K562
[52] = test system: MOLT-4
[53] = test system: HOP-92
[54] = test system: OVCAR-4
[55] = test system: NCI-H522
[56] = test system: HT-29

Measured: GI50

Cc1c(C(=O)/C=C/c2ccc(Cl)cc2)[n+]([O-])c2ccccc2[n+]1[O-]
inactive: [1] 16.1 µM | [2] 15 µM | [3] 11.8 µM | [4] 15.8 µM | [5] 19.3 µM | [6] 26.5 µM | [7] 12.6 µM | [8] 12.4 µM | [9] 15.6 µM | [10] 14.1 µM | [11] 12.9 µM | [12] 34.5 µM | [13] 11.2 µM | [14] 12.5 µM | [15] 11.1 µM | [16] 15.6 µM | [17] 15.2 µM | [18] 9.08 µM | [19] 9.2 µM | [20] 11.8 µM | [21] 14.4 µM | [22] 18.2 µM | [23] 12.2 µM | [24] 20.6 µM | [25] 7.64 µM | [26] 22.1 µM | [27] 7.11 µM | [28] 5.57 µM | [29] 14.7 µM | [30] 5.93 µM | [32] 12.6 µM | [33] 16.4 µM | [34] 14.2 µM | [35] 14.7 µM | [36] 17 µM | [37] 21.2 µM | [38] 7.28 µM | [39] 10.8 µM | [40] 12.1 µM | [41] 5.92 µM | [42] 19.6 µM | [43] 7.94 µM | [44] 10.4 µM | [45] 8.69 µM | [46] 11.3 µM | [47] 4.18 µM | [48] 15.3 µM | [49] 7.1 µM | [50] 4.1 µM | [51] 4.6 µM | [52] 13.8 µM | [53] 15 µM | [54] 10.5 µM | [55] 3.78 µM | [56] 12.9 µM
9.23 µM: [31]
